According to EP4620957A1, “IMIDAZO[4,5-B]PYRIDIN-7-AMINE COMPOUNDS BINDING AURORA KINASE A AND USES THEREOF” (Eberhard Karls Universität Tübingen, priority 2024, dated 2025):

Assays:
[1] = tested on: NMP19-/-; test: XTT cell viability assay (growth curves / growth inhibition); format: cell-based, murine; settings: NMP19-/- cells; at the IC95 concentration of EXAMPLE 3 against NMP53-/- cells; 48h
Experimental: (§1) In brief, cells were seeded in 6-well plates on day 1. On day 2, cells were treated with either EXAMPLE 3 (AURKA Ligand) or with DMSO (control). After 5 days, wells were washed and cells were fixed with 4% PFA and then stained with Crystal Violet solution. Plates were scanned and pictures were saved. (B) Crystal violet colony formation assay of NMP19-/- or NMP53 murine hepatocellular carcinoma cells. In brief, cells were seeded in 6-well plates on day 1. On day 2, cells were treated with MLN8237 (AURKA inhibitor) or with DMSO (control). After 5 days, wells were washed and cells were fixed with 4% PFA and then stained with Crystal Violet solution. Plates were scanned and pictures were saved. (C) AURKA kinase assay with the AURKA ligand EXAMPLE 3. The AURKA kinase assay was performed by Reaction Biology Corp. and it is based on radiometric ATP quantification. Compounds were received as 10 mM stock. […] Afterwards, an XTT cell viability assay was performed, based on the quantification of metabolic activity of alive cells. […] Finally, slides were mounted and analyzed in a fluorescent microscope. Bar graphs represent quantification of abnormal/normal spindles levels of (B) NMP53^-/- and (C) NMP19^-/- mitotic cells at time points after treatment with 15 nM of EXAMPLE 3. […] Subsequently, they were analyzed in a Flow Cytometry device for quantification of the amount of PI in each cell. […]

[2] = tested on: BNL CL.2 (non-transformed murine embryonic liver cell line); test: as above; format: cell-based; settings: BNL CL.2 cells; at the IC95 concentration of EXAMPLE 3 against NMP53-/- cells; 48h
Experimental: as §1

[3] = tested on: TPX2; test: Cellular Thermal Shift Assay (CETSA) in NMP53-/- cells; format: cell-based, murine; settings: 43.7- 47.9 °C
[4] = biological target: T1, AURKA (Mus musculus, UniProt P97477); test: as above; format: cell-based, murine; settings: 43.7- 47.9 °C
T1 construct: endogenous in cells; host or cells: NMP53-/- murine hepatocellular carcinoma cells
T1 sequence (P97477 1-395): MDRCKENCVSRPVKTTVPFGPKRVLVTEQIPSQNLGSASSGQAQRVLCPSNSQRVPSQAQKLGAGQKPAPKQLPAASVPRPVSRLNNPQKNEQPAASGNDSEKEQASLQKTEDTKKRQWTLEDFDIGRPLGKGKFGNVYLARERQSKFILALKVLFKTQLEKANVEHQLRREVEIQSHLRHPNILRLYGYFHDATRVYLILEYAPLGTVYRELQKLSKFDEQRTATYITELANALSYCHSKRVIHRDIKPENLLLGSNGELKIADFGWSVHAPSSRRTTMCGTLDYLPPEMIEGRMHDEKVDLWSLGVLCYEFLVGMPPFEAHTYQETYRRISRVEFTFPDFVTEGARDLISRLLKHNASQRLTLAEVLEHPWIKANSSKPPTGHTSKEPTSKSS

Structure (SMILES): Cn1cc(-c2ccc(CNc3ccnc4[nH]c(CCc5ccco5)nc34)cc2)cn1 [Example 3, 2-(2-(furan-2-yl)ethyl)-N-(4-(1-methyl-1H-pyrazol-4-yl)benzyl)-3H-imidazo[4,5-b]pyridin-7-amine]
- growth inhibition in percentage [1]: no significant growth inhibition
- growth inhibition in percentage [2]: no significant growth inhibition
- thermal stabilization of TPX2 (SDS-Page of soluble fraction) [3]: stabilized
- thermal stabilization of AURKA (SDS-Page of soluble fraction) [4]: stabilized
